The record followed here is publication PMC6642116, “Structural and functional analyses of hepatitis B virus X protein BH3-like domain and Bcl-xL interaction” (Nature Communications, 2019).

For the experiment, the system named is HBV in HepG2-NTCP cells. Kind of experiment: Inhibition of HBV infection in HepG2-NTCP cells by HBx118–127. The class given is cell-based. Particulars: unrelated control peptide, MOI 200, day 8. As to the method: We took advantage of the structural information of the HBx-aa113–135/Bcl-xL complex to develop potential HBV inhibitors. […] BH3-only mimetics, […] and ABT-737, were included as controls. […] We also used HBV-infected HepG2-NTCP cells to evaluate the inhibitory effect of the HBx-aa118–127 peptide on HBV replication, by treating the cells with the peptide at 12.5, 50, and 200 µg/ml concentrations, respectively.
Cytoplasmic HBV viral particles were isolated and the viral DNA replication intermediates were quantified (Methods). […] The lysate was analyzed by immunoblotting using antibodies to caspase-3 (CASP3) and GAPDH (glyceraldehyde 3-phosphate dehydrogenase). c, d The HBx-aa113–135, HBx-aa118–127, or the control peptides were delivered into HepG2.2.15 cells using PEP-1 nanoparticles (Methods). The levels of HBV DNA (c) and the levels of HBV S-antigen (HBsAg) expression (d) in culture medium collected from HepG2.2.15 cells were measured (Methods). […] Data shown represent mean ± SD. Significance is indicated on the top. Not significant (ns): *P < 0.05, **P < 0.01; two-tailed unpaired t tests (n = 3 biologically independent samples). Source data are provided as a Source Data file
The levels of HBsAg, HBeAg, and HBcAg expression were measured by chemiluminescence, using Commercial Assay Kit (Wantai, Beijing, China). Northern blot analysis of HBV RNA, Southern blot analysis of HBV DNA, and real-time PCR quantification of HBV DNA are described in the Supplementary Methods.

In the case of “SSTTSTGPCKTCTTPAQGTSMFP-K-biotin [Control, equal-length unrelated control biotin-labeled peptide]”, the “HBV DNA, HepG2-NTCP cell” value (replicate 1) is given as 0.996 fold-change to control; the “HBV DNA, HepG2-NTCP cell” value (replicate 2) is on record as 0.822 fold-change to control; the “HBV DNA, HepG2-NTCP cell” value (replicate 3) was 1.182 fold-change to control. Further, the “HBeAg, HepG2-NTCP cell” value reads like this: (replicate 1) 1.091 fold-change to control; (replicate 2) 1.003 fold-change to control; (replicate 3) 0.906 fold-change to control.
